Assays:
[1] = target: T1, SnxA (full-length SnxA-GFP; DDB_G0289833) (Dictyostelium discoideum, UniProt Q54GY1); assay: microscopy of GFP recruitment to membrane-coated beads, probe titration; assay type: binding; settings: 5 mol% phosphoinositide in 95 mol% POPC bilayers on silica beads; 150 mM NaCl, 20 mM Hepes, 0.5 mM TCEP, room temperature; acyl chains not given; avidity of dimer; read-out: apparent Kd
T1 construct: full length (PX domain plus coiled coil); N-terminal 6xHis and eGFP kept; E. coli BL21; mostly dimer, apparent 181 kD by mass photometry
T1 sequence (Q54GY1 1-186): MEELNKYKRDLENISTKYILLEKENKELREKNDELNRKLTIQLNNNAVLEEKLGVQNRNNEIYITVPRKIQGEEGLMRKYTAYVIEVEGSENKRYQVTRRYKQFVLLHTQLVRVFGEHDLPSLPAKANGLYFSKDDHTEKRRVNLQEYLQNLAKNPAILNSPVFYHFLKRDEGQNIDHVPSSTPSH

[2] = target: T2, 2xPX (2xPX-GFP, tandem repeat of the SnxA PX domain) (Dictyostelium discoideum, UniProt Q54GY1); assay: as above; assay type: binding; settings: 5 mol% phosphoinositide in 95 mol% POPC bilayers on silica beads; 150 mM NaCl, 20 mM Hepes, 0.5 mM TCEP, room temperature; acyl chains not given; avidity of tandem domains; read-out: apparent Kd
T2 construct: gene DDB_G0289833; N-terminal 6xHis and eGFP kept; E. coli BL21; single population, apparent 104 kD by mass photometry

[3] = target: full-length SnxA, recombinant N-terminal 6xHis and eGFP fusion (Dictyostelium discoideum); assay: mass photometry; recombinant GFP fusions diluted to 25-50 nM in 250 mM NaCl, 20 mM Hepes, 0.5 M TCEP (so in the source) immediately before measurement; OneMP mass photometer; monomer to dimer

PI(3,5)P2
Kd [1]: 0.187 ± 0.013 µM
Kd [2]: 0.217 ± 0.007 µM

full-length SnxA, recombinant N-terminal 6xHis and eGFP fusion (natural protein)
percent of the protein at the dimer's apparent mass [3]: 85%
stoichiometry N [3]: 2

— paper PMC10309190, “A PI(3,5)P2 reporter reveals PIKfyve activity and dynamics on macropinosomes and phagosomes” (The Journal of Cell Biology, 2023)
